Measured values as given in PMC10189658 (Journal of inorganic biochemistry, 2023).

Target: T1, human heme oxygenase-1 (hHO-1) (Homo sapiens, UniProt P09601)
T1 sequence (P09601 1-288): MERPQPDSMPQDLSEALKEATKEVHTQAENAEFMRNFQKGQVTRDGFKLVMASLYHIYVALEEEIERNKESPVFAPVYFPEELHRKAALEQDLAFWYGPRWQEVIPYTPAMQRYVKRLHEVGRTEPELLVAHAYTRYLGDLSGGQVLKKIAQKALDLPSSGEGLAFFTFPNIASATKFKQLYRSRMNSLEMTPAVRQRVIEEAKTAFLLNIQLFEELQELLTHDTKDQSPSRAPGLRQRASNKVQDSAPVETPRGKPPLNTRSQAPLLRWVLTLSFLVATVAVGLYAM
Assay: UV-Vis Soret equilibrium binding titration

Brc1ccc(CCC2(Cn3ccnc3)OCCO2)cc1 [OB-24]
Kd: 4.46 ± 0.8 µM
